# Tested on: CHO cell line (GAA LEC clone R3.3) expressing rh-GAA
# Test: Phosphorylation efficiency of rh-GAA from cultures containing mannosidase inhibitors ([32P] incorporation by GlcNAc phosphotransferase)
# Type: cell-based, Chinese Hamster
# Conditions: increasing amounts of inhibitor alone vs no mannosidase inhibitors (FIG. 1)
# Description: To determine whether mannosidase inhibitors can increase phosphorylation efficiency of recombinant human acid alpha glucosidase (rh-GAA), a CHO cell line (GAA LEC clone R3.3) expressing rh-GAA was grown in various conditions that contained different amounts of the following mannosidase the inhibitors: Kifunensin; Deoxymannojirimycin (DMJ); or combinations of both inhibitors. Conditioned media from each inhibitor condition containing 6 μg of GAA (based on GAA activity assay) was then incubated with purified bovine GlcNAc phosphotransferase (Pt'ase) and [^32P]UDP-GlcNAc. Subsequently, each phosphorylation reaction was loaded onto a concanavalin A-sepharose column to capture glycoproteins, e.g., rh-GAA. The concanavalin A-sepharose was washed and the resin was counted in a liquid scintillation counter to measure the ^32P incorporation, i.e., the extent of phosphorylation on rh-GAA. The results are summarized in Table 1 below and FIGS. 1 and 2.
smiles,measurement,value
"OC[C@H]1NC[C@@H](O)[C@@H](O)[C@@H]1O [DMJ only, deoxymannojirimycin]",effect on the phosphorylation reaction of rh-GAA (in words),greatly enhance the phosphorylation reaction
"O=C1N[C@@H]2[C@@H](O)[C@@H](O)[C@H](O)[C@@H](CO)N2C1=O [Kifunensin only, kifunensine]",effect on the phosphorylation reaction of rh-GAA (in words),greatly enhance the phosphorylation reaction
